In US10975091B2, “Pyridine derivative” (Astellas Pharma Inc., priority 2014, dated 2021):

Test system: continuously hydrated rats
Experiment: Antidiuresis test in continuously hydrated rats with additional water loading (oral administration)
Format: in vivo, rat
Settings: for urine production after additional water loads: groups with additional water loads (15 mL/kg at two and three hours after administration); for urine production after additional water loads / urine production: FIG. 1; for urine production: groups without additional water loads, two hours after administration, maintained until four hours; for change in plasma sodium level (in words): three hours and four hours after administration, additional water loads
Method: Male Wistar rats were used in the test. Initially, water load with 15 mL/kg of distilled water was forcedly administered to the rats. Every 30 minutes after loading water, urine volume collected during 30 minutes was measured and distilled water was forcedly administered to the rats in an amount equal to the urine volume excreted during the last 30 minutes. This water load procedure was repeated to the termination of the test to maintain the diuretic state. […] The individual groups were further divided into two subgroups, and additional distilled water of 15 mL/kg load was forcedly administered to one of the subgroups two times, i.e. at two hours and three hours after the administration. For comparison, the Vehicle group administered only with the vehicle was also subjected to the additional administrations of water load. Blood was collected from a half of the rats in each group subjected to additional administrations of water load, at three hours after the administration (immediately before the second additional water load) and from the other half at four hours after the administration, and plasma sodium levels were measured with an automatic electrolyte analyzer to determine the plasma sodium levels at three hours and four hours after the administration, respectively (each group consisted of seven to eight rats). Changes in the urine volume in individual groups are shown in FIG. 1, and the plasma sodium levels of the group administered with additional water loads are shown in Table 4.

| Structure (SMILES) | urine production after additional water loads | urine production | change in plasma sodium level (in words) |
| --- | --- | --- | --- |
| NC(=O)CC[C@@H]1NC(=O)[C@H](Cc2ccccc2)NC(=O)[C@H](Cc2ccc(O)cc2)NC(=O)CCSSC[C@@H](C(=O)N2CCC[C@H]2C(=O)N[C@H](CCCN=C(N)N)C(=O)NCC(N)=O)NC(=O)[C@H](CC(N)=O)NC1=O [dDAVP, Desmopressin, reference compound] | urine production was not resumed | almost stopped | more significant decreases |
| CC(C)C[C@H](N)[C@](O)(Cc1cc(O[C@H]2CC[C@H](C)CC2)ccn1)C(=O)O (relative stereo) [EX-a] | resumed after administration of the additional water loads | almost stopped | slightly decreased |
| CCSC[C@H](N)[C@](O)(Cc1cc(O[C@H]2CC[C@H](C)CC2)ccn1)C(=O)O [EX-b, (2R,3R)-3-amino-4-(ethylsulfanyl)-2-hydroxy-2-({4-[(trans-4-methylcyclohexyl)oxy]pyridin-2-yl}methyl)butanoic acid] | resumed after administration of the additional water loads | almost stopped | slightly decreased |
